Data on 3 molecules can be found in patent US10925914B2, “Method for alleviating depression using a health functional food containing Vaccinium bracteatum Thunb fruit extract” (priority 2016, dated 2021).

Data set [1] relates to SH-SY5Y cells (neuroblastoma, human dopaminergic neuronal cells). The conditions noted are these: 24 h. As to the method: SH-SY5Y cells (neuroblastoma, human dopaminergic neuronal cells) were incubated in MEM medium containing 1% antimycotics/antibiotics and 10% FBS. The cells were seeded at a density of 10^5 cell/ […] in a 96-well plate, and then incubated for 24 hours.
The cell line used was SH-SY5Y cells, and the cells were treated with the Vaccinium bracteatum Thunb. fruit hot-water extract at concentrations of 1, 3, 10, 30, and 100 μg/ml to investigate cytotoxicity.
(§1) After 24 hours, cell viability was determined using an MTT assay.
as §1

The subject of data set [2] is ICR male mice. The experiment in a line: Forced swimming test after 6-day oral administration. Type of data set: in vivo. The settings on record: comparison group, 6 days. As to the method:
The ICR male mice were orally administered with the Vaccinium bracteatum Thunb. fruit extract of the present invention. For a comparative group, escitalopram oxalate used an anti-depressant was orally administered. These were administered for 6 days according to the test. Before drug administration, for the pre-test (pre-swim), tap water around 25° C. was poured into a cylindrical water tank (20 cm in diameter, 40 cm in height) from the bottom of the cylinder to 15 cm, and then the mice were put into the water tank, forced to swim for 15 minutes, taken out from the water, wiped with a dry towel, and then returned to breeding boxes. After 6 days of drug administration, the present test (post-swim) was carried out. […] The recorded image was analyzed excluding the first minute therefrom, and animal behavior during the last 5 minutes was classified into 3 types: immobility behavior (the mouse only floated near the surface of the water, slightly moving while only a part of the upper body including the face was above water), swimming behavior (the mouse moved horizontally around the cylinder moving the front and hind legs in a swimming motion), and climbing behavior (the mouse scratched the wall, somewhat violently kicking the front extremities to move remain above water). The duration of each behavior type was measured.

Data set [3] relates to corticosterone (COR). The experiment in a line: Plasma corticosterone (COR) by ELISA after 6-day administration. Type of data set: in vivo, mice. The settings on record: escitalopram oxalate 10 mg/kg, 6 days; no significance. As to the method: The effects on concentration changes of the neurotransmitter NE associated with depression and the stress hormone COR in normal conditions were measured by isolating plasma from the mice after 6 day-administration of each drug and using the Abnova ELISA kit according to the instruction of the manufacturer.

SMILES strings stand for the structures. Structures can show the parent of a compound that is named as a salt.

With `OO` [H2O2, hydrogen peroxide], the cell viability in data set [1] (10 μM) is 50-60%.

For `C[C@]12C[C@H](O)[C@H]3[C@@H](CCC4=CC(=O)CC[C@@]43C)[C@@H]1CC[C@@H]2C(=O)CO` [corticosterone], the cytotoxicity in data set [1] (1 mM) is 50-60%.

`CN(C)CCC[C@@]1(c2ccc(F)cc2)OCc2cc(C#N)ccc21` [escitalopram oxalate] yielded a swimming time in data set [2] (control 51.82±3.38 seconds) of 128.16 ± 6.65 s. In data set [2] (last 5 min of 6 min swim, control 245.48±4.05 seconds), the immobility time came out at 169.65 ± 7.15 s. For the same molecule, in data set [3], the “level of the stress hormone corticosterone compared with the control group” value was “decrease tendency”.
